The term IC50 denotes the concentration at which inhibition is half-maximal. The term Ki denotes the dissociation constant of the complex between target and ligand, obtained from inhibition or displacement. By EC50 is commonly meant the midpoint of the concentration-response curve.

The results in this text go back to ChEMBL document CHEMBL1201862, “PubChem BioAssay data set” (2004).

Activity calls are given as the source filed them.

Test [1] deals with T1, Sentrin-specific protease 6 (Homo sapiens, UniProt Q9GZR1).
T1 sequence (Q9GZR1 whole entry): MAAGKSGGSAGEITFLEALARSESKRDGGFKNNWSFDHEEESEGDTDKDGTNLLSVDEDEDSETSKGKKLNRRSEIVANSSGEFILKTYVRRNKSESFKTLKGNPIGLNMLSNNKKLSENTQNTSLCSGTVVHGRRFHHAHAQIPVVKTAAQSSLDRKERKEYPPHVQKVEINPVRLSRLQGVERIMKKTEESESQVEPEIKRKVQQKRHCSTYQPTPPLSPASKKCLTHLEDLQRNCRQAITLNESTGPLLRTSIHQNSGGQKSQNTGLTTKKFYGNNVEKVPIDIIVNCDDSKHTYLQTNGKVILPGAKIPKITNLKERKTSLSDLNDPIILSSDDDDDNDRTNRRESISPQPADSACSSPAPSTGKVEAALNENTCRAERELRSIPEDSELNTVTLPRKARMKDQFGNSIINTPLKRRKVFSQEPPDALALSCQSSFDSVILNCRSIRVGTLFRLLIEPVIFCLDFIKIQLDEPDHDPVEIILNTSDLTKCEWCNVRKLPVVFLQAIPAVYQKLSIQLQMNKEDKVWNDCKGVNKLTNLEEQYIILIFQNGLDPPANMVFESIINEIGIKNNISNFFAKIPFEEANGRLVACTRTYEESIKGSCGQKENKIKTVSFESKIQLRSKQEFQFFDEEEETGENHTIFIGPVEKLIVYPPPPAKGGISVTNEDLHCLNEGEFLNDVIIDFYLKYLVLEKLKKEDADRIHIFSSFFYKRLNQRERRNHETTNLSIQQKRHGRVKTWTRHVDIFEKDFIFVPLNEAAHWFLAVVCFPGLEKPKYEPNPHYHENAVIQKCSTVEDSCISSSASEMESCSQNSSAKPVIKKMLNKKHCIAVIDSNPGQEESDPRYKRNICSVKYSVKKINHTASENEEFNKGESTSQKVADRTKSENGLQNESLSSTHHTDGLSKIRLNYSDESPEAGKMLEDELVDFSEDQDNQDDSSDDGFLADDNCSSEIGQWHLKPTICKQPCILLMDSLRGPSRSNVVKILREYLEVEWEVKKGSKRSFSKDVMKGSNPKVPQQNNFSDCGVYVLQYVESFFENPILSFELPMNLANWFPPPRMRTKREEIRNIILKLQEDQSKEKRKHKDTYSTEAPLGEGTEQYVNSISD
Type of test: functional.

In test [2] the target is Hepatocyte growth factor receptor (Homo sapiens, UniProt P08581). The format is functional.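 Note: kinase panel profiling across the kinome, with MET as the panel member.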
Test [3] deals with Protein kinase C theta type (Homo sapiens, UniProt Q04759). Briefly: Navigating the Kinome. Panel member name: PRKCQ. The format is functional.
The target in test [4] is Dual specificity protein kinase CLK2 (Homo sapiens, UniProt P49760). Type of test: functional.
For test [5], the target named is Ribosomal protein S6 kinase alpha-3 (Homo sapiens, UniProt P51812). The format is functional.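 Note: measured within a kinome-wide profiling panel.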
Test [6] deals with Cyclin-dependent kinase 5 (Homo sapiens, UniProt Q00535). Type of test: functional.
Test [7] addresses Platelet-derived growth factor receptor alpha (Homo sapiens, UniProt P16234). Put plainly: Navigating the Kinome. Panel member name: PDGFRA. Type of test: functional.
The target of test [8] is Casein kinase I isoform alpha (Homo sapiens, UniProt P48729). The format is functional.
Test [9] addresses T2, 1-phosphatidylinositol 4,5-bisphosphate phosphodiesterase gamma-1 (Homo sapiens, UniProt P19174).
T2 sequence (P19174 whole entry): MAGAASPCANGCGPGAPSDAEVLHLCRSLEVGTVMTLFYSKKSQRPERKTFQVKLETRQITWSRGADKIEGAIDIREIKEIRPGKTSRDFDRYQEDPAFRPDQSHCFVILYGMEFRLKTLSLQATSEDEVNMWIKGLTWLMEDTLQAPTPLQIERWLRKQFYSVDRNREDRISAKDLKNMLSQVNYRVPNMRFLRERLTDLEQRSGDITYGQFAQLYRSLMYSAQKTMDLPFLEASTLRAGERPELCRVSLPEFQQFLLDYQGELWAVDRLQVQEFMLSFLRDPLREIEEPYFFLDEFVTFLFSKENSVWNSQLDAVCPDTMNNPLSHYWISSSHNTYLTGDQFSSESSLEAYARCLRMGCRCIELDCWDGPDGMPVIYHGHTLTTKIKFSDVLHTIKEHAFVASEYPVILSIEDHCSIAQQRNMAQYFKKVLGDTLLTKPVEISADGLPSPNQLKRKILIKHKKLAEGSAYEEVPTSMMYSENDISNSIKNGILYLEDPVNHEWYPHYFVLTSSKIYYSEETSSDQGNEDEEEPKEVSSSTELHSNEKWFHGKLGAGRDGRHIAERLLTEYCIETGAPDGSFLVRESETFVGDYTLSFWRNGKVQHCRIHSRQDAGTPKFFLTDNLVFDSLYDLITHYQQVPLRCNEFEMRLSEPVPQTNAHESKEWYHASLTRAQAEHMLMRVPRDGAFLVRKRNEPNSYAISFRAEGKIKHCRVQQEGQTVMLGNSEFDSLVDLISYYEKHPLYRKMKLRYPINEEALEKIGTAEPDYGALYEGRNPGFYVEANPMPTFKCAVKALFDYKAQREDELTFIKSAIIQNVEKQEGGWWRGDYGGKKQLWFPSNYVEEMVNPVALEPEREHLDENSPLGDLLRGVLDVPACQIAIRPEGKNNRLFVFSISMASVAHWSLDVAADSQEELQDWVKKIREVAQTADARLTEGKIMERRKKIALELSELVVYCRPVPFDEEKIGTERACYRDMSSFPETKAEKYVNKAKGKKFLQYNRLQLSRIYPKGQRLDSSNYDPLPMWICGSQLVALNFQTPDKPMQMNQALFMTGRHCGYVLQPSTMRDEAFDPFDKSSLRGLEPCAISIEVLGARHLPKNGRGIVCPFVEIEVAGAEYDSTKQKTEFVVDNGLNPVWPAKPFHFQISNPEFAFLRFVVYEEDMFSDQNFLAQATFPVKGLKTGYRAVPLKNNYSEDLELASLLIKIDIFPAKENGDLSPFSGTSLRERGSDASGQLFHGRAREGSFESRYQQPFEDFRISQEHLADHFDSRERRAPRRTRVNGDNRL
Briefly: Counterscreen for inhibitors of phospholipase C isozymes (PLC-B3): Fluorescence-based biochemical high throughput dose response assay to identify inhibitors of phospholipase C isozymes (PLC-gamma1). Background: The purpose of a counterscreen is to sort out artefacts and off-target activity.

The target of test [10] is Intestinal-type alkaline phosphatase (Homo sapiens, UniProt P09923). Briefly: activation of human intestinal alkaline phosphatase – biochemical, dose response (AID 488873). Type of test: functional.
Intestinal-type alkaline phosphatase, sequence (P09923 whole entry): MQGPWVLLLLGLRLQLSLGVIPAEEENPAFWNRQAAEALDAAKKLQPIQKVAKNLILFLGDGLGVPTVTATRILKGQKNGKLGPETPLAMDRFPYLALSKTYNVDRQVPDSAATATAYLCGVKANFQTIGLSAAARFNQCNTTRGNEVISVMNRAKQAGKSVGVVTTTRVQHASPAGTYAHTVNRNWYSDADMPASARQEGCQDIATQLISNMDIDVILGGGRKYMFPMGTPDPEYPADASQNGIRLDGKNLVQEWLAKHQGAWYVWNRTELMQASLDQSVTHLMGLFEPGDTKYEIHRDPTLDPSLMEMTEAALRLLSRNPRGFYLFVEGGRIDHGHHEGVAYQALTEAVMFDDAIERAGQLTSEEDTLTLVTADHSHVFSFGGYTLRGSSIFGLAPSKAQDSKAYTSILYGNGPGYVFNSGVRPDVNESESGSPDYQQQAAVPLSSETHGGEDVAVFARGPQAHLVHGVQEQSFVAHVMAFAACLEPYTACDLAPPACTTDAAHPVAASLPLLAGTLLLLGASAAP

Protein kinase C theta type, sequence (Q04759 whole entry): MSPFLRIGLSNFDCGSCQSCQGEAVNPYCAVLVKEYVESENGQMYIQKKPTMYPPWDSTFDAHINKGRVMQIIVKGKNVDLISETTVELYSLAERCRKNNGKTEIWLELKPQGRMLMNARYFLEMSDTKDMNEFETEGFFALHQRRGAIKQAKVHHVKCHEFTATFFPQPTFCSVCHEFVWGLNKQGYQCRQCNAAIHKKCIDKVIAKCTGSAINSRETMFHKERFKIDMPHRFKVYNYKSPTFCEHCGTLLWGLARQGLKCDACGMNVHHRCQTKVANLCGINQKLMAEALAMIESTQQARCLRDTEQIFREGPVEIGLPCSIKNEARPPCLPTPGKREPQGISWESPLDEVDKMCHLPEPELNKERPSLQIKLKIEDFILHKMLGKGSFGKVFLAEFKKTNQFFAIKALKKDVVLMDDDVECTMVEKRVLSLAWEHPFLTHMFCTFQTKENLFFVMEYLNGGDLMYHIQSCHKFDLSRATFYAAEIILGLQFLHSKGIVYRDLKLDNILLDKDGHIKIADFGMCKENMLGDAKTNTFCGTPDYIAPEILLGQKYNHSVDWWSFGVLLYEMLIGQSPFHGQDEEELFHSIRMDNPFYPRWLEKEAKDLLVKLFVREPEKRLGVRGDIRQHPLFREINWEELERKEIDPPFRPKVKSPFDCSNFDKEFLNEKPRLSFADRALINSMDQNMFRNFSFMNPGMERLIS
Casein kinase I isoform alpha, sequence (P48729 whole entry, canonical isoform): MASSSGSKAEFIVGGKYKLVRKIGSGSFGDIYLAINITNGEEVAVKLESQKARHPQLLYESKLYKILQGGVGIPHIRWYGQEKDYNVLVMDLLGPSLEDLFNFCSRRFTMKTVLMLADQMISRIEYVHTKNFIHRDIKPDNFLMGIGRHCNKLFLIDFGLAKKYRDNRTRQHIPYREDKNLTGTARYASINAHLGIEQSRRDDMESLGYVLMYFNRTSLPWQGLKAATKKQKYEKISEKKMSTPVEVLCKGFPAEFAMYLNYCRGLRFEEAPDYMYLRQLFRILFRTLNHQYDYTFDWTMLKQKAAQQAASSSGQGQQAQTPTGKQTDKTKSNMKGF
Cyclin-dependent kinase 5, sequence (Q00535 whole entry): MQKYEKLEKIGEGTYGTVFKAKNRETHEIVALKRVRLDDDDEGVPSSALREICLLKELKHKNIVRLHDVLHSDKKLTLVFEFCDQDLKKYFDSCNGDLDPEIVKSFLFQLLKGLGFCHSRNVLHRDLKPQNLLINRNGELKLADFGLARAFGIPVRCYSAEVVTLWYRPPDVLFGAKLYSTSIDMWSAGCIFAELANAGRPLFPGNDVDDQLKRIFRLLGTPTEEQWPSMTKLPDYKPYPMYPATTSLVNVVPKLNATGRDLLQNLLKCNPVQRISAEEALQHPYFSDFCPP
Platelet-derived growth factor receptor alpha, sequence (P16234 whole entry, canonical isoform): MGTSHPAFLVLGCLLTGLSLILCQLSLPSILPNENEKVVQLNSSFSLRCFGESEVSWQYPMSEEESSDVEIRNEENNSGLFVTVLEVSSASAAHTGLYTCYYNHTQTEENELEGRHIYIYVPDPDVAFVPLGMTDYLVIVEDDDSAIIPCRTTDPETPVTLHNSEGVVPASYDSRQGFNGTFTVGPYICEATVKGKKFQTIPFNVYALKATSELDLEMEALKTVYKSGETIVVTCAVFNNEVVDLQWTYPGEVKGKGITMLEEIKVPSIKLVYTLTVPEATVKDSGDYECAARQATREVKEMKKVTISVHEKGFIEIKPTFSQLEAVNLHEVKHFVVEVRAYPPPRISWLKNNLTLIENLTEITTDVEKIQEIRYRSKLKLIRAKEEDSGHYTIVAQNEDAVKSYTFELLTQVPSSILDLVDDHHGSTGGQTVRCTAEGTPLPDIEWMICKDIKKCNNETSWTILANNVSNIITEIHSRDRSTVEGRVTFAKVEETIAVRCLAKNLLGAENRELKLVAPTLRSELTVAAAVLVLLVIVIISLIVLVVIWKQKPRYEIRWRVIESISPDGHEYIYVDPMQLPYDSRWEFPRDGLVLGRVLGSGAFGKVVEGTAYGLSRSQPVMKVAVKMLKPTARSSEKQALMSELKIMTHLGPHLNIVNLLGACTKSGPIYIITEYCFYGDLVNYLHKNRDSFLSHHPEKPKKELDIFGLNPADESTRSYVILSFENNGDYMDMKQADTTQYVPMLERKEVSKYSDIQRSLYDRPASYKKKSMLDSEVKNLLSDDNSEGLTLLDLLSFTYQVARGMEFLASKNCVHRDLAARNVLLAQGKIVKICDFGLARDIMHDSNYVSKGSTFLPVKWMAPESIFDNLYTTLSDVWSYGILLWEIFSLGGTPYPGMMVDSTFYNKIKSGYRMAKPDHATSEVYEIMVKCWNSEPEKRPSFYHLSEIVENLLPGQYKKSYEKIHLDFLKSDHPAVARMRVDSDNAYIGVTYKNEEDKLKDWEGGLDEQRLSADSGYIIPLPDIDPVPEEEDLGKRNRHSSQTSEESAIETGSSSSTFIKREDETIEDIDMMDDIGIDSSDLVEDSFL
Dual specificity protein kinase CLK2, sequence (P49760 whole entry): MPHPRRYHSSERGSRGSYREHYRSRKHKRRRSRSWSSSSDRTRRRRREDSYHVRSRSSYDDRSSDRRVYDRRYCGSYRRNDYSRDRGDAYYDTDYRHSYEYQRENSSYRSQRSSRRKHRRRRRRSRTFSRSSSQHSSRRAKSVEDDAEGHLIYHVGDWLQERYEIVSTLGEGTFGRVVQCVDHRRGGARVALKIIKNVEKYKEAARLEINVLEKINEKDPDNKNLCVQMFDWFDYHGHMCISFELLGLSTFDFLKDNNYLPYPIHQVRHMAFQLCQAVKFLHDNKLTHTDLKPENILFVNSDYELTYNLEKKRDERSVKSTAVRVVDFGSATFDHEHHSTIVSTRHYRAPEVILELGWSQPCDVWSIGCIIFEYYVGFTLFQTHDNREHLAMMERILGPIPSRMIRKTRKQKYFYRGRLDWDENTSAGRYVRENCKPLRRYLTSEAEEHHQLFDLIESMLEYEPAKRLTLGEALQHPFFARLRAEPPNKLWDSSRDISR
Hepatocyte growth factor receptor, sequence (P08581 whole entry): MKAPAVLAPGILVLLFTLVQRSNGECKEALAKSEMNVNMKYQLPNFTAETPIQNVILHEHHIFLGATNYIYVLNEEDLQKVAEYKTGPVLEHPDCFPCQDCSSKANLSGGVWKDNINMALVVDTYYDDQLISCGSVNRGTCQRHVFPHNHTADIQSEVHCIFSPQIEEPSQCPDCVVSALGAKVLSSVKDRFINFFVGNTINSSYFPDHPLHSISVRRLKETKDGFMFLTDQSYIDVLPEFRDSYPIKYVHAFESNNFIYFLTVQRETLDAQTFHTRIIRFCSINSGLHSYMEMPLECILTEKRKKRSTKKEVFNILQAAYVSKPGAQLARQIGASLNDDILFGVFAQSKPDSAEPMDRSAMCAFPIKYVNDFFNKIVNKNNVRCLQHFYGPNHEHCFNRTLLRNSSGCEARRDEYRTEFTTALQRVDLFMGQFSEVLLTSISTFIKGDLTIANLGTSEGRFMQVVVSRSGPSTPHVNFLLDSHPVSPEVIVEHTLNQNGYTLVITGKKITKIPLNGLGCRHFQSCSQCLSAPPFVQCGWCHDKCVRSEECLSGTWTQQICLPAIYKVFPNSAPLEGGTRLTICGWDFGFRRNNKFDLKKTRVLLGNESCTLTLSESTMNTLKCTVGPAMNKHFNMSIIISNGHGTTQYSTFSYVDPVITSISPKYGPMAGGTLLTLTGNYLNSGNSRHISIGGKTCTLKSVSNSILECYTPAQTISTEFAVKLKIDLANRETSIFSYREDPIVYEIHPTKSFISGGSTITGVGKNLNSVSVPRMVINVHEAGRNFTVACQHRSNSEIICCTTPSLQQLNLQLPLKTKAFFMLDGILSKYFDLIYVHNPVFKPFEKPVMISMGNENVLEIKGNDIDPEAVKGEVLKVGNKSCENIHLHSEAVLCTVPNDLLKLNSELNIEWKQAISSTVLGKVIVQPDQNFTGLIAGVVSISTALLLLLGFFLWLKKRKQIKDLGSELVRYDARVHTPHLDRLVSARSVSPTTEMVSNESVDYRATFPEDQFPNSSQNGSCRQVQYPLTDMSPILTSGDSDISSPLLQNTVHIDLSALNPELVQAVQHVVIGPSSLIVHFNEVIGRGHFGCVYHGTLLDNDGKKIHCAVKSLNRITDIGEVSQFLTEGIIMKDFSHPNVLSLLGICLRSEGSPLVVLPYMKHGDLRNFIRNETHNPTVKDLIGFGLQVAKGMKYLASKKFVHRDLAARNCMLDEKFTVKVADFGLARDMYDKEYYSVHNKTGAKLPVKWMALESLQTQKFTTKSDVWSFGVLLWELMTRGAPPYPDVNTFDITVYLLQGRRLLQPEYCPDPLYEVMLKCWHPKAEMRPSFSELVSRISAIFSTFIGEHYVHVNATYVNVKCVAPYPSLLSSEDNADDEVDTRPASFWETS

On to `CC(=O)N(C1=C(Cl)C(=O)c2ccccc2C1=O)c1ccc(C(=O)O)cc1`, for which the IC50 in test [1] is 4.08 µM (active).

In the case of `Cc1ccc(-c2cc3nc(Br)cnc3[nH]2)cc1`, the Ki in test [2] was > 2.51 µM (inactive); in [3], > 2.51 µM (inactive); in test [4] it was > 3.98 µM (inactive); in [5], > 3.98 µM (inactive); in test [6], 7.94 nM (active); in test [7], > 2.51 µM (inactive). Moreover, the Ki in [8] is > 3.98 µM (inactive).

Turning to `O=C1C=C(O)c2c(O)cc(O)c(O)c2C1=O`, the IC50 in [9] was > 40.8 µM (inactive). In test [10], the EC50 is > 100 µM (inactive).
